# Source: US10898609B2, “Tissue decellularization methods” (priority 2015, dated 2021)
# Assays:
# Format in all cases: cell-based, Sprague Dawley rats
# peripheral nerve [1] = assay: Total DNA content of decellularized peripheral nerve, Picogreen DNA assay; conditions: 1 day
# Experimental: Peripheral nerves were harvested from Sprague Dawley rats and decellularized according to an apoptosis-assisted protocol using 5 μM camptothecin in non-supplemented media at 37° C. for 1 day. Tissue in media without camptothecin, an apoptotic agent, was used as a control. Apoptotic agent treatment was succeeded by washes in saline buffered solutions to optimize cell removal. Furthermore, the tissue was treated with 75 u/mL DNAse for 24 hours to ensure DNA removal. The degree of apoptosis, cellular removal, and matrix preservation was assessed using immunochemistry on nerve tissue sections and fluorescence imaging (FIG. 2). Antibodies used to identify apoptosis, cell removal, and tissue preservation include those against active caspase 3 (Abcam); neurofilament (RT-97, DSHB) and S100 (Dako); and laminin (Sigma), respectively. […] FIGS. 2B and 2C show nerves treated with 5 μM for 1 day, washed with a hypertonic, and either washed with a hypertonic solution or treated for 24 hours with DNAse, respectively. […] FIGS. 2E and 2F show treatment with higher camptothecin (10 μM), again for 1 day, and washed similarly to tissue in FIGS. 2B and 2C. These images depict 1) apoptosis induction is necessary prior to washing to effectively remove cellular components and 2) combing apoptosis induction with washes in non-isotonic solutions achieves cellular removal of peripheral nerve tissue. Total DNA content was quantified using a Picogreen DNA assay (Life Technologies) according to manufacturer's instructions.
# active caspase 3 = assay: Immunochemistry for active caspase 3 on nerve tissue sections; conditions: 10 μM camptothecin, 2 days, 37° C., ex vivo nerve; vs media control
# Experimental: (§1) Peripheral nerves were harvested from Sprague Dawley rats and decellularized according to an apoptosis-assisted protocol using 10 μM camptothecin in non-supplemented media at 37° C. for 2 days. Tissue in media without camptothecin was used as a control. Apoptotic agent treatment was succeeded by washes in saline buffered solutions to optimize cell removal. The degree of apoptosis, cellular removal, and matrix preservation was assessed using immunochemistry on nerve tissue sections and fluorescence imaging. Antibodies used to identify apoptosis, cell removal, and tissue preservation include those against active caspase 3 (Abcam); neurofilament (RT-97, DSHB) and S100 (Dako); and laminin (Sigma), respectively. […] Total DNA content was quantified using a Picogreen DNA assay (Life Technologies) according to manufacturer's instructions.
# peripheral nerve [2] = assay: TUNEL assay of apoptosis-mediated DNA fragmentation in nerve tissue; conditions: 10 μM camptothecin, 2 days, 37° C., ex vivo nerve; vs media control
# Experimental: as §1
smiles,measurement,setting,value
CC[C@@]1(O)C(=O)OCc2c1cc1n(c2=O)Cc2cc3ccccc3nc2-1 [camptothecin],reduction in DNA content compared to fresh nerve,"peripheral nerve [1]; 5 μM camptothecin, 37° C., hypertonic and hypotonic washes",71.9%
same,reduction in DNA content compared to fresh nerve,"peripheral nerve [1]; 5 μM camptothecin, hypotonic wash replaced with DNAse treatment (75 u/mL, 24 hours)",95.1%
same,reduction in DNA content compared to fresh nerve,"peripheral nerve [1]; 10 μM camptothecin, hypertonic and hypotonic washes",57.3%
same,reduction in DNA content compared to fresh nerve,"peripheral nerve [1]; 10 μM camptothecin, hypotonic wash replaced with DNAse treatment (75 u/mL, 24 hours)",95.8%
same,active caspase 3 (early mediator of apoptosis),active caspase 3,caspase 3 activation
same,DNA fragmentation (TUNEL staining),peripheral nerve [2],DNA fragmentation
